The values that follow come from the NIST ThermoML archive (doi:10.1016/j.fluid.2012.04.003).

± gives the expanded uncertainty stated by the source.

This data set in a line: wn = mass fraction of the nth substance listed. The note with it: 101 kPa, Liquid, Vibrating tube method.

One may read the mass density as mass per unit of volume. For the molecule `[Cl-].[Na+]` [sodium chloride] + O, the mass density was found to be 1012.4 ± 0.8 kg/m3 (293.15 K, w1 = 0.02); 1026.7 ± 0.8 kg/m3 (293.15 K, w1 = 0.04); 1012.4 ± 0.8 kg/m3 (303.15 K, w1 = 0.02); 1026.7 ± 0.8 kg/m3 (303.15 K, w1 = 0.04); 1006.1 ± 0.8 kg/m3 (313.15 K, w1 = 0.02).
